Read-outs that look alike come from different tables or passages of the source.
Experiments:
H. pylori [1] = assay: Drug resistance testing of laboratory strains on characteristic culture medium (discoloration after 36 hours); type: cell-based, Helicobacter pylori
Protocol: The characteristic culture media (A, B, C, D, E) are cultivated at a constant temperature of 37° C. for 36 hours in a three gas incubator. The characteristic culture media are removed and placed in a natural environment for 30 minutes to observe whether there are discolorations at the point of the culture medium where the specimen is dropped in. […] Another 100 μL of the specimen is taken and coated on Columbia solid culture medium and cultivated in a three gas incubator at a constant temperature of 37° C. for 3 days to 5 days. The number of colonies on the plate is counted to determine the initial inoculation amount. The micro dilution method is adopted to test the MIC of clinical specimen H. pylori, the test is meaningful only when there is no bacterial growth in the negative control well without bacteria and there is bacterial growth in the positive well with bacteria but without antibiotics. […] The results are recorded and whether the micro dilution method and characteristic culture medium are consistent with each other in evaluating the drug resistance of clinical H. pylori strains is compared. […]
(2) Inoculation of bacterial solution: 10 μL bacterial solution is taken and added dropwise onto a characteristic culture medium with 5 pieces (ABCDE) in total.
(3) Culture: all plates are moved to a three gas incubator and cultivated at 37° C. for 36 hours. After being taken out and placed in a natural environment for 30 minutes, whether the bacteria have resistance is determined based on the discoloration of the characteristic culture medium.

[2] = system: clinical H. pylori strain; assay: Drug resistance testing of clinical specimens on characteristic culture medium (discoloration after 36 hours); type: cell-based, Helicobacter pylori
Protocol: (§1) The characteristic culture media (A, B, C, D, E) are cultivated at a constant temperature of 37° C. for 36 hours in a three gas incubator. The characteristic culture media are removed and placed in a natural environment for 30 minutes to observe whether there are discolorations at the point of the culture medium where the specimen is dropped in. […] Another 100 μL of the specimen is taken and coated on Columbia solid culture medium and cultivated in a three gas incubator at a constant temperature of 37° C. for 3 days to 5 days. The number of colonies on the plate is counted to determine the initial inoculation amount. The micro dilution method is adopted to test the MIC of clinical specimen H. pylori, the test is meaningful only when there is no bacterial growth in the negative control well without bacteria and there is bacterial growth in the positive well with bacteria but without antibiotics.
(1) Transfer liquid preparation: after sterilization and cooling, BHI culture medium is added with 10% calf serum, followed by 30% glycerol to prepare H. pylori preservation solution. On this basis, 1% H. pylori selective additive is added to prepare the transfer liquid. 1 mL of transfer solution is taken into a sterile EP tube, and 6-8 sterilized small steel balls are poured into the EP tube for the subsequent use.
(3) Specimen acquisition: a biopsy tissue group is obtained from the gastric antrum and a small curvature side of the gastric body through a gastroscopy biopsy passage and placed into an EP tube (strictly sterile operation). The biopsy tissue is placed on the ice surface and transferred as soon as possible (within 2 hours) to complete the subsequent steps.
(4) Preparation of bacterial solution containing tissue: the EP tube containing tissue is placed in a homogenizer at 300 hz and crushed for 5 minutes, transferred to another EP, centrifuged at 12000 rpm for 2 minutes, the supernatant is discarded, BHI is resuspended to 200 μL, and a bacterial suspension is prepared for the subsequent use.
(5) Inoculation of bacterial solution: 10 μL of bacterial solution is taken and added dropwise to the characteristic culture medium (5 pieces in total). The characteristic culture medium is removed after cultivating in a three gas incubator at 37° C. for 36 hours, and the results are determined after leaving for 30 minutes; another 100 μL is taken and coated onto Colombian culture medium for the traditional bacterial culture.

H. pylori [3] = assay: Verification of resistance breakpoint: growth of laboratory strains on Columbia solid culture medium with added antibiotics, 72 hours; type: cell-based, Helicobacter pylori; conditions: for growth of bacterial: antibiotic 0.0313 μg/mL
Protocol: The plates are cooled and inverted for approximately 10 mL/piece, marked properly for the subsequent use.
(2) Preparation of bacterial solution: H. pylori grown in logarithmic phase on a solid plate is taken to prepare a bacterial suspension by using BHI. The concentration OD600 is adjusted to 0.3 (1×10^8 CFU/mL), diluted 10 times for the subsequent use.
(3) Inoculation of bacterial solution: 10 μL of bacterial solution is taken and added to Columbia culture medium and the results are determined after cultivating for 72 hours.
(4) Result determination: the minimum drug concentration for no growth of bacteria on the plate is the minimum inhibitory concentration of the bacteria against the drug.

[4] = system: clinical H. pylori strain; assay: MIC of clinical H. pylori strains by micro dilution method; type: cell-based; conditions: Helicobacter pylori, 72 h, approximately 1.0×10^6 CFU/mL per well, 72 hours, read-out: MIC
Protocol: as §1
H. pylori single colony grown on Colombian culture medium is taken (which is confirmed as H. pylori by urease, oxidase, catalase, and PCR testing of CagA gene, as illustrated in FIG. 13) and the bacteria are increased. During the preparation of MIC plates and bacterial solution, H. pylori with logarithmic growth phase is taken to prepare a bacterial suspension by using BHI. The concentration OD600 is adjusted to 0.3 (1×10^8 CFU/mL, diluted 10 times, 10 μL is taken and added to wells 1-8 (with a bacterial solution concentration of approximately 1.0×10^6 CFU/mL per well, cultivated for 72 hours to determine the results.

H. pylori [5] = conditions: bacterial count 1×10^6 CFU/mL; cited from earlier work

CC1(C)S[C@@H]2[C@H](NC(=O)[C@H](N)c3ccc(O)cc3)C(=O)N2[C@H]1C(=O)O [Amoxicillin, amoxicillin]
drug resistance determined by discoloration of characteristic culture medium (H. pylori [1]; strain 159, 1×10^6 CFU/mL): sensitive | drug resistance determined by discoloration of characteristic culture medium (H. pylori [1]; strain 286, 1×10^6 CFU/mL): have developed resistance | drug resistance determined by discoloration of characteristic culture medium (H. pylori [1]; strain 287, 1×10^6 CFU/mL): have developed resistance | drug resistance determined by discoloration of characteristic culture medium (H. pylori [1]; strain 289, 1×10^6 CFU/mL): have developed resistance | drug resistance determined by discoloration of characteristic culture medium (H. pylori [1]; strain G27, 1×10^6 CFU/mL): does not develop resistance | drug resistance determined on characteristic culture medium ([2]; clinical H. pylori strain FY-31): sensitive | drug resistance determined on characteristic culture medium ([2]; clinical H. pylori strain FY-43): sensitive | drug resistance determined on characteristic culture medium ([2]; clinical H. pylori strain FY-47): sensitive | drug resistance determined on characteristic culture medium ([2]; clinical H. pylori strain FY-52): sensitive | growth of sensitive strains (H. pylori [3]; levofloxacin 0.5, clarithromycin 0.5, metronidazole 4, amoxicillin 0.5 μg/mL): no sensitive strain grows | growth of bacterial (H. pylori [3]; strain 159): + | growth of bacterial (H. pylori [3]; strain 161): + | growth of bacterial (H. pylori [3]; strain 162): + | growth of bacterial (H. pylori [3]; strain 163): + | growth of bacterial (H. pylori [3]; strain 286): − | growth of bacterial (H. pylori [3]; strain 287): + | growth of bacterial (H. pylori [3]; strain 289): + | growth of bacterial (H. pylori [3]; strain 290): + | growth of bacterial (H. pylori [3]; strain 26695): + | growth of bacterial (H. pylori [3]; strain G27): + | MIC ([4]; clinical strain FY-31): 0.0312 µg/mL | MIC ([4]; clinical strain FY-43): 0.0312 µg/mL | MIC ([4]; clinical strain FY-47): 0.0312 µg/mL | MIC ([4]; clinical strain FY-52): < 0.0312 µg/mL | resistance breakpoints of H. pylori according to CLSI guidelines (H. pylori [5]): 0.5 µg/mL

— patent US12486489B2, “Culture medium for testing drug resistance of H.pylori as well as preparation method and use thereof” (priority 2022, dated 2025)
